Data published in the supplement of paper PMC10733146.

How the values were obtained:
Assay in all cases: viability relative to DMSO control (fraction); higher = less drug effect (more viable cells)
Conditions in all cases: 48 h
[1] = tested on: primary T-NHL patient cells (S058)
How it was run: (§1)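 Cells were incubated for 48 h at 37 °C and 5% CO2 in RPMI-1640 with penicillin/streptomycin, L-glutamine and human serum, at 4 × 10^4 cells per well in 384-well plates with compounds pre-plated at five concentrations, one well each. These were primary mononuclear tumour cells, fresh or cryopreserved, Ficoll-isolated from blood or bone marrow or obtained from processed lymph node. Viability values are CellTiter-Glo luminescence relative to the median of 16 inner DMSO wells.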

[2] = tested on: primary MCL patient cells (S041)
How it was run: as §1

[3] = tested on: primary AML patient cells (S019)
How it was run: as §1

[4] = tested on: primary CLL patient cells (S031)
How it was run: as §1

[5] = tested on: primary MCL patient cells (S063)
How it was run: as §1

[6] = tested on: primary AML patient cells (S006)
How it was run: as §1

[7] = tested on: primary DLBCL patient cells (S049)
How it was run: as §1

[8] = tested on: primary AML patient cells (S056)
How it was run: as §1

[9] = tested on: primary ALL patient cells (S088)
How it was run: as §1

[10] = tested on: primary FL patient cells (S087)
How it was run: as §1

[11] = tested on: primary AML patient cells (S011)
How it was run: as §1

[12] = tested on: primary DLBCL patient cells (S076)
How it was run: as §1

[13] = tested on: primary AML patient cells (S079)
How it was run: as §1

[14] = tested on: primary AML patient cells (S085)
How it was run: as §1

[15] = tested on: primary FL patient cells (S022)
How it was run: as §1

[16] = tested on: primary ALL patient cells (S048)
How it was run: as §1

[17] = tested on: primary AML patient cells (S012)
How it was run: as §1

Question: For `CC(=O)Nc1cccc(-n2c(=O)n(C3CC3)c(=O)c3c(Nc4ccc(I)cc4F)n(C)c(=O)c(C)c32)c1` [Trametinib], which viability ([1]; 0.0008 µM) is on record?
Answer: 0.918

Question: What about the viability ([1]; 0.004 µM) of the same molecule?
Answer: 0.98

Question: What about the viability ([1]; 0.02 µM) of the same molecule?
Answer: 0.969

Question: What about the viability ([1]; 0.1 µM) of the same molecule?
Answer: 0.967

Question: What about the viability ([1]; 0.5 µM) of the same molecule?
Answer: 0.934

Question: What about the viability ([2]; 0.0008 µM) of the same molecule?
Answer: 0.989

Question: What about the viability ([2]; 0.004 µM) of the same molecule?
Answer: 1.04

Question: What about the viability ([2]; 0.02 µM) of the same molecule?
Answer: 1.03

Question: What about the viability ([2]; 0.1 µM) of the same molecule?
Answer: 1.01

Question: What about the viability ([2]; 0.5 µM) of the same molecule?
Answer: 1.02

Question: And the viability ([3]; 0.0008 µM)?
Answer: 0.948

Question: And the viability ([3]; 0.004 µM)?
Answer: 0.944

Question: What about the viability ([3]; 0.02 µM) of the same molecule?
Answer: 0.878

Question: What about the viability ([3]; 0.1 µM) of the same molecule?
Answer: 0.919

Question: And the viability ([3]; 0.5 µM)?
Answer: 0.912

Question: And the viability ([4]; 0.0008 µM)?
Answer: 0.648

Question: And the viability ([4]; 0.004 µM)?
Answer: 0.49

Question: And the viability ([4]; 0.02 µM)?
Answer: 0.379

Question: What about the viability ([4]; 0.1 µM) of the same molecule?
Answer: 0.349

Question: What about the viability ([4]; 0.5 µM) of the same molecule?
Answer: 0.311

Question: And the viability ([5]; 0.0008 µM)?
Answer: 0.991

Question: And the viability ([5]; 0.004 µM)?
Answer: 0.973

Question: What about the viability ([5]; 0.02 µM) of the same molecule?
Answer: 0.987

Question: What about the viability ([5]; 0.1 µM) of the same molecule?
Answer: 0.949

Question: What about the viability ([5]; 0.5 µM) of the same molecule?
Answer: 0.936

Question: And the viability ([6]; 0.0008 µM)?
Answer: 0.888

Question: What about the viability ([6]; 0.004 µM) of the same molecule?
Answer: 0.939

Question: And the viability ([6]; 0.02 µM)?
Answer: 0.787

Question: And the viability ([6]; 0.1 µM)?
Answer: 0.86

Question: And the viability ([6]; 0.5 µM)?
Answer: 0.798

Question: What about the viability ([7]; 0.0008 µM) of the same molecule?
Answer: 0.769

Question: And the viability ([7]; 0.004 µM)?
Answer: 0.834

Question: And the viability ([7]; 0.02 µM)?
Answer: 0.705

Question: What about the viability ([7]; 0.1 µM) of the same molecule?
Answer: 0.729

Question: And the viability ([7]; 0.5 µM)?
Answer: 0.658

Question: What about the viability ([8]; 0.0008 µM) of the same molecule?
Answer: 0.77

Question: What about the viability ([8]; 0.004 µM) of the same molecule?
Answer: 0.66

Question: And the viability ([8]; 0.02 µM)?
Answer: 0.588

Question: And the viability ([8]; 0.1 µM)?
Answer: 0.535

Question: And the viability ([8]; 0.5 µM)?
Answer: 0.514

Question: And the viability ([9]; 0.0008 µM)?
Answer: 0.62

Question: And the viability ([9]; 0.004 µM)?
Answer: 0.548

Question: And the viability ([9]; 0.02 µM)?
Answer: 0.545

Question: And the viability ([9]; 0.1 µM)?
Answer: 0.503

Question: And the viability ([9]; 0.5 µM)?
Answer: 0.504

Question: What about the viability ([10]; 0.0008 µM) of the same molecule?
Answer: 0.951

Question: What about the viability ([10]; 0.004 µM) of the same molecule?
Answer: 0.9

Question: And the viability ([10]; 0.02 µM)?
Answer: 0.92

Question: What about the viability ([10]; 0.1 µM) of the same molecule?
Answer: 0.903

Question: What about the viability ([10]; 0.5 µM) of the same molecule?
Answer: 0.941

Question: What about the viability ([11]; 0.0008 µM) of the same molecule?
Answer: 0.855

Question: And the viability ([11]; 0.004 µM)?
Answer: 0.925

Question: What about the viability ([11]; 0.02 µM) of the same molecule?
Answer: 0.953

Question: And the viability ([11]; 0.1 µM)?
Answer: 0.931

Question: What about the viability ([11]; 0.5 µM) of the same molecule?
Answer: 0.879

Question: What about the viability ([12]; 0.0008 µM) of the same molecule?
Answer: 0.752

Question: What about the viability ([12]; 0.004 µM) of the same molecule?
Answer: 0.789

Question: And the viability ([12]; 0.02 µM)?
Answer: 0.63

Question: What about the viability ([12]; 0.1 µM) of the same molecule?
Answer: 0.706

Question: And the viability ([12]; 0.5 µM)?
Answer: 0.648

Question: And the viability ([13]; 0.0008 µM)?
Answer: 0.703

Question: What about the viability ([13]; 0.004 µM) of the same molecule?
Answer: 0.655

Question: And the viability ([13]; 0.02 µM)?
Answer: 0.556

Question: What about the viability ([13]; 0.1 µM) of the same molecule?
Answer: 0.538

Question: And the viability ([13]; 0.5 µM)?
Answer: 0.504

Question: What about the viability ([14]; 0.0008 µM) of the same molecule?
Answer: 0.667

Question: And the viability ([14]; 0.004 µM)?
Answer: 0.618

Question: What about the viability ([14]; 0.02 µM) of the same molecule?
Answer: 0.484

Question: What about the viability ([14]; 0.1 µM) of the same molecule?
Answer: 0.456

Question: And the viability ([14]; 0.5 µM)?
Answer: 0.415

Question: What about the viability ([15]; 0.0008 µM) of the same molecule?
Answer: 0.845

Question: And the viability ([15]; 0.004 µM)?
Answer: 0.986

Question: What about the viability ([15]; 0.02 µM) of the same molecule?
Answer: 0.851

Question: And the viability ([15]; 0.1 µM)?
Answer: 1.18

Question: And the viability ([15]; 0.5 µM)?
Answer: 0.824

Question: What about the viability ([16]; 0.0008 µM) of the same molecule?
Answer: 0.818

Question: What about the viability ([16]; 0.004 µM) of the same molecule?
Answer: 0.766

Question: And the viability ([16]; 0.02 µM)?
Answer: 0.674

Question: And the viability ([16]; 0.1 µM)?
Answer: 0.666

Question: What about the viability ([16]; 0.5 µM) of the same molecule?
Answer: 0.592

Question: What about the viability ([17]; 0.0008 µM) of the same molecule?
Answer: 0.799

Question: And the viability ([17]; 0.004 µM)?
Answer: 0.808

Question: What about the viability ([17]; 0.02 µM) of the same molecule?
Answer: 0.45

Question: And the viability ([17]; 0.1 µM)?
Answer: 0.406

Question: And the viability ([17]; 0.5 µM)?
Answer: 0.306
